Assay results: US20070197452A1, “Treatment of amyloid-related diseases” (priority 2006, published 2007)
Entries after “also recorded” stand apart in the source; their conditions may differ.

Tests used:
Assay type in all cases: in vivo, mouse
TgCRND8 mice [1] = assay: Cerebral amyloid plaque burden (anti-Aβ immunostaining, image analysis); conditions: for amyloid burden in hippocampus and cerebral cortex: TgCRND8 mice at six months of age; for mean plaque size: prophylactic
Description: Cerebral amyloid burden. […] To generate sets of systematic uniform random sections, 5 μm serial sections were collected across the entire hemisphere. Sets of sections at 50 μm intervals were used for analyses (10-14 sections/set). Plaques were identified after antigen retrieval with formic acid, and incubation with primary anti-Aβ antibody (Dako M-0872), followed by secondary antibody (Dako StreptABCcomplex/horseradish kit). End products were visualized with DAB and were counter-stained with luxol fast blue. Amyloid plaque burden was assessed with Leco IA-3001 image analysis software interfaced with Leica microscope and Hitachi KP-M1U CCD video camera. Openlab imaging software (Improvision, Lexington, Mass.) was then used to convert micrographs to binary images for plaque number and plaque area determinations. Vascular amyloid burden was defined as amyloid originating from or surrounding blood vessels and was analysed similarly. Cerebral Aβ burden. […] Sets of sections at […] intervals for analyses (10-14 sections per set) were used. Plaques with primary Aβ-specific antibody (Dako M-0872) were identified and visualized with DAB. AP plaque burden was assessed with Openlab imaging software (Improvision) and used to convert micrographs to binary images for determinations of plaque number and plaque area. Vascular Aβ burden was defined as Aβ plaques originating from or surrounding blood vessels and was analyzed similarly. Cerebral Aβ burden. […] To generate sets of systematic uniform random sections, 5 μm serial sections were collected across the entire hemisphere. Sets of sections at 50 μm intervals were used for analyses (10-14 sections/set). Plaques were identified after antigen retrieval with formic acid, and incubation with primary anti-Aβ antibody (Dako M-0872), followed by secondary antibody (Dako StreptABCcomplex/horseradish kit). End products were visualized with DAB and were counter-stained with luxol fast blue. Aβ plaque burden was assessed with Leco IA-3001 image analysis software interfaced with Leica microscope and Hitachi KP-M1U CCD video camera. Openlab imaging software (Improvision, Lexington, Mass.) was then used to convert micrographs to binary images for plaque number and plaque area determinations. Vascular Aβ burden was defined as Aβ plaques originating from or surrounding blood vessels and was analyzed similarly.

TgCRND8 mice [2] = assay: Survival census (Kaplan-Meier); conditions: prophylactic treatment, vs untreated, n=35 per group
Description: (§1) Survival Census: The probability of survival was assessed by the Kaplan-Meier technique, computing the probability of survival at every occurrence of death, thus making it suitable for small sample sizes. For the analyses of survival, 35 mice were used for each treatment group. The Tarone-Ware test was used to assess effects of treatments.
as §1, with “census.” for “Census:”, “using” for “by”

TgCRND8 mice [3] = assay: Morris water maze spatial reference memory test; conditions: for spatial learning performance compared with non-Tg littermates / spatial learning performance compared with untreated TgCRND8 littermates: 28 days of treatment from 5 months of age, tested at 6 months; for cognitive performance compared with non-Tg mice / cognitive performance compared with untreated TgCRND8 mice / cognitive performance compared with non-Tg littermates: prophylactic
Description: Behavioural tests: Morris Water Maze testing was performed as previously described. After non-spatial pre-training, mice underwent place discrimination training for 5 days with 4-trials per day, followed by a cued visible platform to rule out general motivational, learning deficits and motor problems, and a probe trial to evaluate memory. […] Open field test for motor activity was preformed as described previously. Duration of walking, pausing and grooming were analyzed as indices of spontaneous locomotor activity. Sensorimotor function was examined with an EconomexTM accelerating rotarod (Columbus Instruments, Columbus, Ohio), as described elsewhere. The rod was set to accelerate at a rate of 0.2 r.p.m./s, from an initial, constant speed of 5 r.p.m. Latency to fall was recorded in four daily trials, conducted at 30 min intervals. All mice were trained for seven days before testing. The test day performance score for each animal was obtained by summing its latency to fall over the four trials Behavioral tests. Morris water maze testing was carried out as previously described. After nonspatial pretraining, mice underwent place discrimination training for 5 d with four trials per day, followed by a cued visible platform trial and a probe trial. An open-field test for motor activity was carried out as described previously. Sensorimotor function was assessed with an Economex accelerating rotarod (Columbus Instruments) as previously described. Behavioural tests. Morris Water Maze testing was performed as previously described. After non-spatial pre-training, mice underwent place discrimination training for 5 days with 4-trials per day, followed by a cued visible platform to rule out general motivational, learning deficits and motor problems, and a probe trial to evaluate memory. The probe trial was conducted at 72 h after the last testing, and used an annulus-crossing index to assess spatial recall. The annulus-crossing index measures the number of passes over the original platform position relative to passes over the other three quadrants. […] Open field test for motor activity was performed as described previously

TgCRND8 mice [4] = assay: Gliosis quantitation (GFAP astrocytes, CD68 microglia); conditions: prophylactic treatment; for astrogliosis (percent brain area covered): 4 and 6 months of age; for microgliosis / microglial activation (percent brain area covered): 6 months of age
Description: Gliosis Quantitation. Five randomly selected, evenly spaced, sagittal sections were collected from paraformaldehyde-fixed and frozen hemispheres of treated and control mice. Sections were immunolabelled for astrocytes with anti-rat GFAβ IgG2a (Dako; diluted 1:50) and for microglia with anti-rat CD68 IgG2b (Dako; 1:50). Digital images were captured using a Coolsnap digital camera (Photometrics, Tuscon, Ariz.) mounted to a Zeiss, Axioscope 2 Plus microscope. Images were analysed using Openlab 3.08 imaging software (Improvision, Lexington Mass.). Quantification of gliosis. Five randomly selected, evenly spaced sagittal sections from paraformaldehyde-fixed and frozen hemispheres of treated and control mice were collected. Sections were immunolabeled for astrocytes with an antibody against rat GFAβ IgG2a (Dako; diluted 1:50) and for microglia with an antibody to rat CD68 IgG2b (Dako; 1:50). Digital images were captured using a Coolsnap digital camera (Photometrics) mounted to a Zeiss, Axioscope 2 Plus microscope. Images were analyzed using Openlab 3.08 imaging software (Improvision).

[5] = 1 month Treatment: TgCRND8 mice, oral from 5 to 6 months of age
[6] = 4-month Prophylactic: TgCRND8 mice, oral from 6 weeks to 4 months of age
[7] = 6-month Prophylactic: TgCRND8 mice, oral from 6 weeks to 6 months of age
[8] = TgCRND8 mice with pre-existing disease, 28 days from 5 months of age
[9] = TgCRND8 mice, oral, 28 days from 5 months of age, analysed at 6 months, listed as Epi-cyclohexanchexol

OC1C(O)C(O)C(O)C(O)C1O (stereo not drawn) [epi-cyclohexanehexol, 1,2,3,4,5/6-(epi-) cyclohexanehexol, reference compound]
Mean Plaque Size (μm^2) (TgCRND8 mice [1]; [5]): 346 ± 6 μm^2
Total Plaque Area (μm^2) (TgCRND8 mice [1]; [5]): 459706 ± 49966 μm^2
Mean Plaque Size (μm^2) (TgCRND8 mice [1]; [6]): 95 ± 43 μm^2
Total Plaque Area (μm^2) (TgCRND8 mice [1]; [6]): 65042 ± 5199 μm^2
Mean Plaque Size (μm^2) (TgCRND8 mice [1]; [7]): 370 ± 9 μm^2
Total Plaque Area (μm^2) (TgCRND8 mice [1]; [7]): 380456 ± 13498 μm^2
amyloid burden in hippocampus and cerebral cortex (TgCRND8 mice [1]): modest effect on amyloid burden
amyloid burden in hippocampus and cerebral cortex (TgCRND8 mice [1]; listed as AZD-102): modest effect on amyloid burden
percent area of the brain covered with plaques (TgCRND8 mice [1]; [8]): no significant impact; also recorded: no significant effect
plaque number (TgCRND8 mice [1]; [8]): no significant impact; also recorded: no significant effect
Mean Plaque Size (μm^2) (TgCRND8 mice [1]; [9]): 346 ± 6 μm^2
Total Plaque Area (μm^2) (TgCRND8 mice [1]; [9]): 459706 ± 49966 μm^2
Total Plaque Count (TgCRND8 mice [1]; [9]): 1342 ± 114
mean plaque size (TgCRND8 mice [1]; TgCRND8 mice, 4 months of age): significant decrease in mean plaque size
mean plaque size (TgCRND8 mice [1]; TgCRND8 mice, 6 months of age): reductions were not sustained
survival (Kaplan-Meier cumulative survival) (TgCRND8 mice [2]; listed as AZD-102): did not significantly improve survival
survival (Kaplan-Meier cumulative survival) (TgCRND8 mice [2]; listed as Epi-cyclohexanehexol): did not significantly improve survival
spatial learning performance compared with non-Tg littermates (TgCRND8 mice [3]): significantly poorer than the performance of their non-Tg littermates; also recorded: remained impaired with respect to non-Tg littermates; also recorded: remained impaired with respect to nontransgenic littermates
spatial learning performance compared with untreated TgCRND8 littermates (TgCRND8 mice [3]): not significantly different from that of untreated TgCRND8 littermates; also recorded: ineffective at reversing behavioral deficits
spatial learning performance compared with non-Tg littermates (TgCRND8 mice [3]; listed as AZD-102): remained impaired with respect to non-Tg littermates
spatial learning performance compared with untreated TgCRND8 littermates (TgCRND8 mice [3]; listed as AZD-102): not different from untreated TgCRND8 littermates
cognitive performance compared with non-Tg mice (TgCRND8 mice [3]; 6 weeks to 4 months of age): significantly different from treated and untreated nontransgenic mice
cognitive performance compared with untreated TgCRND8 mice (TgCRND8 mice [3]; 6 weeks to 4 months of age): significant behavioral improvement
cognitive performance compared with non-Tg mice (TgCRND8 mice [3]; 6 weeks to 4 months of age, listed as AZD-102): significantly different from treated and untreated non-Tg mice
cognitive performance compared with non-Tg littermates (TgCRND8 mice [3]; 6 weeks to 6 months of age): indistinguishable from nontransgenic littermates; also recorded: approached that of nontransgenic littermates
cognitive performance compared with untreated TgCRND8 mice (TgCRND8 mice [3]; 6 weeks to 6 months of age): significantly better cognitive function compared to untreated TgCRND8 littermates
cognitive performance compared with non-Tg littermates (TgCRND8 mice [3]; 6 weeks to 6 months of age, listed as AZD-102): approached that of non-Tg littermates
astrogliosis (percent brain area covered) (TgCRND8 mice [4]): decreased the percent brain area covered in astrogliosis
astrogliosis (percent brain area covered) (TgCRND8 mice [4]; listed as AZD-102): decreased the percent brain area covered in astrogliosis; also recorded: decrease in astrogliosis
astrogliosis (percent brain area covered) (TgCRND8 mice [4]; listed as Epi-cyclohexanehexol): decreased the astrogliotic response; also recorded: decrease in astrogliosis
microgliosis / microglial activation (percent brain area covered) (TgCRND8 mice [4]): decreased the percent brain area covered with microgliosis
microgliosis / microglial activation (percent brain area covered) (TgCRND8 mice [4]; listed as AZD-102): decreased the percent brain area covered with microgliosis
microgliosis / microglial activation (percent brain area covered) (TgCRND8 mice [4]; listed as Epi-cyclohexanehexol): no effect on microglial activation
